Data from US9381229B2, “Pharmaceutical composition for use in the treatment of dysfunction associated with aging” (INSERM (INSTITUT NATIONAL DE LA SANTE ET DE LA RECHERCHE …, priority 2011, dated 2016).
Like-named read-outs stand apart in the source and are kept apart here.

Key:
PGC1-α = settings: soleus muscle; HFD mice; chronic apelin treatment
Protocol: (§1) Mice were handled in accordance with the principles and guidelines established by INSERM. C57B16/J wild-type (WT) mice were obtained from Harlah (Gannat, France). […] Moris J. Birnbaum (Howard Hughes Medical Institute, University of Pennsylvania, Philadelphia, Pa.). Apelin-deficient (apelin−/−) mice were generated as described previously (10) and backcrossed to C57B16/J mice >10 times. Mice were housed conventionally in a constant temperature (20-22° C.) and humidity (50-60%) animal room, with a 12/12 h light/dark cycle (lights on at 7:00 a.m.) and free access to food and water. The C57B16/J and AMPK-DN mice were fed an ND from weaning until aged 10 weeks and then either maintained on ND (control group) or fed an HFD containing 20% protein, 35% carbohydrate, and 45% fat (Research Diets, New Brunswick, N.J.). Apelin treatment began after the onset of insulin resistance in males aged 23 weeks. Mice were injected daily with apelin-13 (Phoenix Biotech) at […] i.p. as previously described (7) for 28 days. Age-matched control mice were PBS injected during the same period. Standard mice were also treated with a specific APJ receptor antagonist (F13A) (Phoenix Biotech) (11) at 0.2 μmol/kg/day during 28 days or with the combination of apelin and F13A. All mice were killed 24 h after the last apelin injection in a fed state.
(§2) Total RNAs (1 μg) were isolated from muscle using RNA STAT (AMS Technology, Lutterworth, U.K.) and were reverse transcribed using random hexamers and Superscript II reverse transcriptase (Invitrogen, Paisley, U.K.). Real time PCR was performed as previously described (1). Analysis of the 18S ribosomal RNA was performed using the ribosomal RNA control TaqMan Assay Kit (Applied Biosystems) to normalize gene expression.

[1] = test system: nuclear respiratory factor 1 (NRF1); settings: soleus muscle; HFD mice; chronic apelin treatment
Protocol: as §1, §2

PGC1-β = settings: soleus muscle; HFD mice; chronic apelin treatment
Protocol: as §1, §2

[2] = test system: mitochondrial transcription factor A (TFAM); settings: soleus muscle; HFD mice; chronic apelin treatment
Protocol: as §1, §2

Myostatin = settings: for Myostatin marker quantification (mRNA), Mean: apelin 0.1 μmole/kg/day ip, 28 days
Protocol: (§3) Mice were handled in accordance with the principles and guidelines established by the National Institute of Medical Research (INSERM). C57B16/J wild type mice were obtained from Harlan (Gannat, France). CMV-KO apelin mice were obtained from Genoway (Lyon, France). Mice were housed conventionally in a constant temperature (20-22° C.) and humidity (50-60%) animal room, with a 12/12 h light/dark cycle (lights on at 8:00 am) and free access to food and water. The mice were fed a chow diet from weaning until 10-week-old and then either maintained on a chow diet (Research Diet, NJ).
(§4) Apelin treatment was processing to mice from 31 weeks old to 35 weeks old. Mice were daily injected with intraperitoneal injection of apelin (0.1 μmole/kg/day) as previously described (Higuchi et al 2005; Yue et al 2010) for 28 days. Age-matched control mice were PBS-injected during the same period. All mice were sacrificed 24 h after the last apelin ip injection in a fed state.
(§5) Total RNAs ([…]) were isolated from muscles using GeneJET RNA Purification Kit (Fermentas, USA). Total RNAs were reverse transcribed using random hexamers and Superscript 11 reverse transcriptase (Invitrogen, UK). Real time PCR was performed as previously described (Boucher et al. 2005).

myogenin = settings: for myogenin marker quantification (mRNA), Mean: apelin 0.1 μmole/kg/day ip, 28 days
Protocol: as §3, §4, §5

MyoD = settings: for MyoD marker quantification (mRNA), Mean: apelin 0.1 μmole/kg/day ip, 28 days
Protocol: as §3, §4, §5

Myf5 = settings: for Myf5 marker quantification (mRNA), Mean: apelin 0.1 μmole/kg/day ip, 28 days
Protocol: as §3, §4, §5

[3] = Plasma apelin concentration in HFD mice (Example 3); format: in vivo
Protocol: Plasma fatty acids (FM) and TGs measured by colorimetric technique with the Wako NEFA kit (Wako Chemicals) and the PAP 150 Kit (bioMerieux), respectively, as well as plasma leptin, adiponectin (Quantikine; R&D Systems), and apelin (Phoenix Pharmaceuticals, Inc.), were determined in the fed state at the end of the treatment. Insulinemia (Mercodia, Uppsala, Sweden) and glycemia measured with a glucometer (Accu-check; Roche Diagnostics) were determined in the fasted state on blood from the tail vein.

mitochondrial complexes = settings: muscle of HFD mice; chronic apelin treatment
Protocol: as §1
(§6) Membranes were probed with β-actin or AMPK or ACC antibodies for total proteins.

ACC = settings: muscle of insulin-resistant mice
Protocol: as §1, §6

AMPK [4] = settings: muscle of insulin-resistant mice
Protocol: as §1, §6

[5] = test system: mitochondria of soleus muscle; settings: HFD mice
Protocol: as §1

citrate synthase = settings: muscle homogenates; HFD mice; n=7-9; P<0.001 vs control
Protocol: as §1

soleus muscle = test system: soleus muscle
Protocol: as §1

AMPK [6] = settings: muscle of HFD AMPK-DN apelin-treated mice
Protocol: as §1

[7] = test system: muscle of insulin-resistant mice; settings: HFD mice; chronic apelin treatment 28 days
Protocol: as §1

Malonyl-CoA = settings: soleus muscle of insulin-resistant mice
Protocol: as §1

mtDNA = assay: Mitochondrial DNA analysis in soleus muscle (COX1 to cyclophilin A); format: in vivo; settings: HFD mice
Protocol: Total DNA was extracted from soleus muscle using a commercial kit (DNeasy; QIAGEN). The content of mitochondrial (mt)DNA was calculated using real-time quantitative PCR by measuring the threshold cycle ratio of a mitochondrial encoded gene (COX1) and a nuclear-encoded gene (cyclophilin A) as previously described (15).

[8] = Plasma apelin concentration after ip bolus of apelin (Example 1); format: in vivo, mice; settings: bolus of ip apelin 0.1 μmole/kg; 10 min after injection
[9] = quadriceps muscles of moderate aged-mice, 28-days treatment
[10] = soleus muscle, HFD mice, chronic apelin treatment

CSCC[C@H](NC(=O)[C@@H]1CCCN1C(=O)CNC(=O)[C@H](CCCCN)NC(=O)[C@H](Cc1cnc[nH]1)NC(=O)[C@H](CO)NC(=O)[C@H](CC(C)C)NC(=O)[C@H](CCCNC(=N)N)NC(=O)[C@@H]1CCCN1C(=O)[C@H](CCCNC(=N)N)NC(=O)[C@@H](N)CCC(N)=O)C(=O)N1CCC[C@H]1C(=O)N[C@@H](Cc1ccccc1)C(=O)O [apelin, apelin-13]
Expression of PGC1-α (FIG. 5C) (PGC1-α): significantly increased | expression of NRF1 [1]: upregulated | expression of PGC1-β (FIG. 5C) (PGC1-β): not modified | expression of TFAM [2]: upregulated | Myostatin marker quantification (mRNA), Mean (Myostatin; EDL muscle): 114.660 | Myostatin marker quantification (mRNA), Mean (Myostatin; Gas muscle): 1034.000 | Myostatin marker quantification (mRNA), Mean (Myostatin; Quad muscle): 244.300 | myostatin expression, change in words (FIGS. 1A and B) (Myostatin; [9]): decrease | myogenin marker quantification (mRNA), Mean (myogenin; EDL muscle): 14.280 | myogenin marker quantification (mRNA), Mean (myogenin; Gas muscle): 23.360 | myogenin marker quantification (mRNA), Mean (myogenin; Quad muscle): 35.060 | Myogenin expression, change in words (FIGS. 1A and B) (myogenin; [9]): increased | MyoD marker quantification (mRNA), Mean (MyoD; EDL muscle): 142.520 | MyoD marker quantification (mRNA), Mean (MyoD; Gas muscle): 222.300 | MyoD marker quantification (mRNA), Mean (MyoD; Quad muscle): 328.160 | MyoD expression, change in words (FIGS. 1A and B) (MyoD; [9]): increased | Myf5 marker quantification (mRNA), Mean (Myf5; EDL muscle): 1.200 | Myf5 marker quantification (mRNA), Mean (Myf5; Gas muscle): 5.340 | Myf5 marker quantification (mRNA), Mean (Myf5; Quad muscle): 5.820 | Myf 5 expression, change in words (FIGS. 1A and B) (Myf5; [9]): increased | Plasma apelin concentrations, increase ([3]; HFD mice, bolus of apelin 0.1 μmol/kg i.p., 10 min after injection): > 2.4 fold | Plasma apelin concentrations, apelin-treated vs PBS-treated mice ([3]; at the end of the 28-day treatment): not different | level at 10 min ([3]; mouse, in vivo, ip, 0.1 umol/kg, HFD mice, bolus of apelin 0.1 μmol/kg i.p., 10 min after injection, n=5): 4.12 ± 0.96 ng/mL | Protein expression of complex II, III, and V (FIG. 5B) (mitochondrial complexes): significantly increased | ACC phosphorylation (FIG. 6A) (ACC): significantly increased | AMPK phosphorylation (FIG. 6A) (AMPK [4]): significantly increased | alterations of mitochondria ultrastructure in IMF and SS mitochondria (FIG. 5E) [5]: Fewer adverse alterations | density of intramyofibrillar (IMF) mitochondria (FIG. 5E) [5]: significantly increased | succinate and adenylate-driven respiration (State 3) ([5]; permeabilized soleus fibers): significantly higher | succinate-driven mitochondrial respiration (complex II) vs control (FIG. 5A) ([5]; permeabilized soleus fibers): significantly higher | glutamate/malate-driven mitochondrial respiration (complex I), apelin- vs PBS-treated ([5]; permeabilized soleus fibers, data not shown): No difference | citrate synthase activity (citrate synthase): 2.91±0.07 μmol/min/mg proteins | insulin-stimulated glucose uptake vs PBS-treated mice (FIG. 7B) (soleus muscle; 100 nmol/L insulin, HFD mice): significantly increased | rate of palmitate incorporation into TG (FIG. 4B) (soleus muscle; HFD mice, chronic apelin treatment 28 days): no effect | acylcarnitine levels, especially C16:1 and C18:1 species, vs HFD PBS-treated mice (FIG. 7A) (soleus muscle; soleus muscle homogenates): reduced | complete oxidation of [14C]palmitate to CO2 vs PBS treatment (FIG. 4C) (soleus muscle; [10]): significantly increased | incomplete oxidation of [14C]palmitate (FIG. 4C) (soleus muscle; [10]): not significantly increased | apelin-increased FAO in HFD AMPK-DN mice vs HFD WT (FIG. 6C) (AMPK [6]): completely blunted | apelin-increased mitochondrial biogenesis in HFD AMPK-DN mice vs HFD WT (FIG. 6D) (AMPK [6]): completely blunted | overexpression of PGC1-α, TFAM, and NRF1 in HFD AMPK-DN mice (FIG. 6E) (AMPK [6]): reduced | amount of IMTG and DAG in muscle vs PBS treatment (FIG. 4A) [7]: does not reduce | malonyl-CoA concentrations (FIG. 6B) (Malonyl-CoA): significant reduction | mtDNA-to-nuclear DNA ratio vs PBS-treated mice (FIG. 5D) (mtDNA): significantly higher | Plasma apelin concentrations, increase [8]: over 2.5 fold
